Data reported in patent US11938113B2, “Epigallocathechin gallate solution” (ASSISTANCE PUBLIQUE—HOPITAUX DE PARIS, priority 2017, dated 2024).
Where “and” joins values, the source holds several entries; their conditions need not be identical. Equal entries are not always repeated. Where two headings read alike, the source gives them in different places.

Experiments:
[1] = Solubility of EGCG in sucrose solution versus EGCG alone in water; assay type: physicochemical; details: after 4 hours of dissolution
Description: The solubility of EGCG in a solution containing 10% by weight of sucrose is compared to that of EGCG alone in water.

[2] = Stress stability testing (thermal gradient 25 to 135° C., HPLC of residue); assay type: physicochemical; details: heating 25 to 135° C. at 5° C. per min
Protocol: Both solutions were subjected to progressive heating ranging from 25 to 135° C. at a rate of 5° C. per minute. At end of heating, the residues formed from each solution are illustrated in FIG. 2A and are analyzed by high performance liquid chromatography.
1 mL of the reference standard suspension and a formulation of the invention disclosed Table 1 before were subjected to a thermal gradient program ranging from 25 to 135° C. at a rate of 5° C. per min. At the end of this exposure, part of each of the residues formed was deposited on a glass slide and the remaining part analyzed by high performance liquid chromatography.

[3] = at normal condition, in water; cited from earlier work
[4] = after 1-h ultra violet irradiation; cited from earlier work

- solubility of EGCG [1]: ≤ 5000 µg/mL
- appearance of residue at the end of heating [2]: black
- chromatographic analysis of residue (EGCG remaining) ([2]; HPLC): practically no more EGCG
Structure (SMILES): O=C(O[C@@H]1Cc2c(O)cc(O)cc2O[C@@H]1c1cc(O)c(O)c(O)c1)c1cc(O)c(O)c(O)c1 [EGCG, Epigallocatechin gallate]
- solubility of EGCG [3]: 4.6 g/L and 10 mM
- decomposition of EGCG [4]: 70%
